Experimental data as given in US7897637B2, “Methods of using flavonoids to enhance memory” (The Salk Institute for Biological Studies, priority 2006, dated 2011).

Tests used:
cAMP = cAMP levels in hippocampal slices (Scintillation Proximity Assay); assay type: cell-based
Experimental: Hippocampal slices were treated with fisetin using the conditions where maximal stimulation of CREB phosphorylation and facilitation of LTP were observed. Briefly, hippocampal slices in ACSF were treated with 1 μM fisetin for 5 minutes (fisetin) or 3 μM rolipram for 30 minutes (rolipram) and then either immediately frozen or treated with […] forskolin for an additional 15 minutes (rolipram+forskolin; fisetin+forskolin) prior to freezing. Additional slices were treated only with 5 μM forskolin for 15 minutes (forskolin). Forskolin, an activator of adenylyl cyclase, and rolipram were used as positive controls. The levels of cAMP in the slices were measured using a Scintillation Proximity Assay and presented as pmole/mg protein±S.D.

Male C57Bl/6J mice = experiment: Object recognition task; assay type: in vivo; conditions: oral, dose not given; vs vehicle
Experimental: The effect of fisetin, 3,3′,4′-THF, and apigenin (5,7,4′-THF) on memory was tested in mice using an object recognition task (Ennaceur and Delacour, Behav. Brain Res., 31:47-59, 1988). Among the alternatives available for testing memory, this assay has proven very effective for measuring CREB-dependent functions (Prickaerts et al., Neurosci., 113:351-61, 2002; Bourtchouladze et al., Proc. Natl. Acad. Sci. USA, 100:10518-22, 2003). In this test, mice are presented with two identical objects during the training period which they explore for a fixed time period. To test for memory, mice are presented one day later with two different objects, one of which was presented previously during the training and is thus familiar to the mice, and the other that is novel. The better a mouse remembers the familiar object, the more time it will spend exploring the novel object. To test the effects of fisetin, 3,3′,4′-THF, or apigenin (5,7,4′-THF) in this memory task, the respective compound was administered orally to the mice before the start of the training period. Rolipram, a phosphodiesterase inhibitor that potentiates memory in this assay (Bourtchouladze et al., Proc. Natl. Acad. Sci. USA, 100:10518-22, 2003), requires intraperitoneal injection and was used as a positive control.
Male C57Bl/6J mice (Jackson Laboratories) were used and the testing was done by PsychoGenics (Tarrytown, N.Y.). All mice were acclimated to the colony room for at least 2 weeks prior to testing and were tested at an average age of 8 weeks. Mice were randomly assigned across treatment groups with 10 mice in each group. For each dose tested, a 10× solution of fisetin was prepared in 95% ethanol and then diluted with 4 volumes polyethylene glycol 660 hydroxystearate (Solut HS15 from BASF) and 5 volumes phosphate buffered saline. The vehicle was contained the identical ratios of ethanol, Solut HS15 and phosphate buffered saline. All were administered orally 60 minutes prior to training at a volume of 10 ml/kg body weight. Rolipram was dissolved in 10% DMSO and administered intraperitoneally 20 minutes prior to training. The test was performed as previously described by Bourtchouladze et al. (Proc. Natl. Acad. Sci. USA, 100:10518-22, 2003). Briefly, on Day 1 mice were habituated to a circular open field arena for one hour in cage groups of four. Twenty-four (24) hours later, individual mice were placed back in the same arena which now contained two identical objects for a 15 minutes training trial. […] Each animal's test trial was recorded and the first 10 minutes of each session were scored. […] Data were analyzed by a one-way ANOVA followed by post-hoc comparisons with Fisher's test. […]

ERK [1] = conditions: Vanhoutte et al. 1999; English & Sweatt 1997; cited from earlier work
HT22 cells = experiment: Protection of HT22 cells from oxidative glutamate toxicity (MTT assay); assay type: cell-based, mouse; conditions: 5 mM glutamate ± 50 μM PD98059, 24 hours
From the text: Fisetin is effective at protecting nerve cells from oxidative stress-induced death (Ishige et al., Free Radic. Biol. Med., 30:433-446, 2001). This Example illustrates the structure-activity relationship between fisetin derivatives and neuroprotection in a model of oxidative glutamate toxicity using mouse HT22 cells. This pathway of programmed cell death is initiated by the addition of glutamate to the extracellular medium. Glutamate inhibits the uptake of cystine which is required for glutathione (GSH) biosynthesis, resulting in the depletion of GSH in neurons (for review see Tan et al., Curr. Top. Med. Chem., 1:497-506, 2001). Subsequently, this decrease in cellular GSH results in the production of reactive oxygen species (ROS) by mitochondria. The ROS accumulation then causes Ca^+2 influx from the extracellular medium which leads to cell death.
HT22 cells were untreated (Ct) or treated with 10 μM fisetin, 25 μM 3,3′-DHF, 25 μM 3,4′-DHF, 2.5 μM 3′,4′-DHF, 2.5 μM 3,3′,4′-THF 25 μM 3,7,3′-THF, 25 μM 3,7,4′-THF or 10 μM 7,3′,4′-THF in the presence of 5 mM glutamate±50 μM PD98059. Twenty four (24) hours later cell survival was measured by the MTT assay.
HT22 cells were untreated (Ct) or treated with 10 μM fisetin, 25 μM 3,3′-DHF. […] Protection by all of the other flavonoids was unaffected by BSO.
Cell viability was determined by a modified version of the 3-(4,5-dimethylthiazol-2-yl)-2,5-diphenyl tetrazolium bromide (MTT) assay based on the standard procedure (Hansen et al., J. Immunol. Meth., 119:203-10, 1989). Briefly, cells were seeded onto 96-well microtiter plates at a density of 5×10^3 cells per well. The next day, the medium was replaced with DMEM supplemented with 7.5% DFCS and the cells were treated with the different flavonoids alone or in the presence of 5 mM glutamate. Twenty four hours later, the medium in each well was aspirated and replaced with fresh medium containing 2.5 μg/ml MTT. After 4 hours of incubation at 37° C., cells were solubilized with 100 μl of a solution containing 50% dimethylformamide and 20% SDS (pH 4.7). The absorbance at 570 nm was measured on the following day with a microplate reader (Molecular Devices). Results obtained from the MTT assay correlated directly with the extent of cell death as confirmed visually. Controls employing wells without cells were used to determine the effects of the agents upon the assay chemistry.

ERK [2] = experiment: ERK activation in PC12 cells (immunoblotting, anti-phospho ERK); assay type: cell-based; conditions: 50 μM PD98059, 30 minutes pretreatment, flavonoids 4 hours
Experimental: PC12 cells were treated with the optimal concentrations for differentiation of the different derivatives for 10 minutes to 6 hours; then the cells were scraped into sample buffer and analyzed by SDS-PAGE and immunoblotting with an antibody specific for phosphorylated ERKs (anti-phospho ERK) and an antibody that detects phosphorylated and unphosphorylated ERKs (anti-ERK),
ERK activation by the different flavonoids was blocked by pretreatment with PD98059, an inhibitor of MEK, the kinase which phosphorylates ERK. PC12 cells in N2 medium were untreated (control) or treated with 10 μM fisetin, 25 μM 3,3′-DHF, 25 μM 3,4′-DHF, 25 μM 3′,4′-DHF, 5 μM 3,3′,4′-THF, 25 μM 3,7,3′-THF, 25 μM 3,7,4′-THF or 10 μM 7,3′,4′-THF for 4 hours in the absence or presence of 50 μM PD98059 (30 minutes pretreatment). The cells then were scraped into sample buffer and analyzed by SDS-PAGE and immunoblotting with an antibody specific for phosphorylated ERKs (anti-phospho ERK) and an antibody that detects phosphorylated and unphosphorylated ERKs (anti-ERK). […]
PC12 cells in N2 medium were treated with the flavonoids as described in the text and, after the indicated time periods, the cells were solubilized in SDS sample buffer containing 0.1 mM Na3VO4 and 1 mM phenylmethylsulfonyl fluoride (PMSF), boiled for 5 minutes and either analyzed immediately or stored frozen at −70° C. […]

ERK [3] = experiment: ERK activation in primary cortical neuron cultures (immunoblotting); assay type: cell-based, rat; conditions: 50 μM PD98059 pretreatment, 10 μM fisetin 4 hours
Experimental: (§1) The average phosphoprotein signal from the blots was quantified by densitometry and normalized to total protein,
(§2) Five (5) day old cortical cultures were next pretreated with 50 μM of the MEK inhibitor, PD98059, before the addition of 10 μM fisetin for 4 hours.
(§3) Primary cultures of rat cortical neurons were prepared as previously described by Li et al. (Neuron, 19:453-63, 1997, herein incorporated by reference as to the method). Analysis of ERK and CREB phosphorylation was performed using SDS-polyacrylamide gel electrophoresis and immunoblotting as previously described by Sagara et al. (J. Neurochem., 90:1144-1155, 2004) using equal amounts of protein from 5 day old cortical cultures. Blots were scanned and quantified using NIH Image. Results were analyzed using an unpaired Student's t-test.

CREB [4] = experiment: CREB activation in primary cortical neuron cultures (immunoblotting); assay type: cell-based, rat; conditions: 50 μM PD98059 pretreatment, 10 μM fisetin 4 hours
Experimental: as §1, §2, §3

[5] = system: CA1 area of rat hippocampal slices; experiment: Long-term potentiation in CA1 area of hippocampal slices; assay type: cell-based
ERK2 (p42) = ERK2 (p42) phosphorylation in hippocampal slices (immunoblotting, densitometry); assay type: cell-based, rat; conditions: inhibitor alone (50 μM PD98059 or 10 μM U0126, 30 minutes)
Experimental: (§4) Western blots panels A and B) of hippocampal slices treated with (A) 1 μM fisetin or (B) pretreated for 30 minutes with either 50 μM PD98059 (PD) or 10 μM U0126 (U) before the addition of 1 μM fisetin for 5 minutes, which blots were probed with the indicated antibodies.
(§5) Hippocampal slices in artificial cerebral spinal fluid (ACSF) were treated with either 1 μM fisetin for 5-20 minutes or pretreated for 30 minutes with either 50 μM PD98059 (PD) or 10 μM U0126 (J) before the addition of 1 μM fisetin for 5 minutes. Equal amounts of protein were analyzed by SDS-PAGE and immunoblotting with antibodies to phospho-ERK and phospho-CRFB along with antibodies to the unphosphorylated forms of the proteins. The average phosphoprotein signal from the blots was quantified by densitometry and normalized to total protein was plotted±S.D.

ERK1 (p44) = ERK1 (p44) phosphorylation in hippocampal slices (immunoblotting, densitometry); assay type: cell-based, rat; conditions: inhibitor alone (50 μM PD98059 or 10 μM U0126, 30 minutes)
Experimental: as §4, §5

CREB [6] = experiment: CREB phosphorylation in hippocampal slices (immunoblotting, densitometry); assay type: cell-based, rat; conditions: inhibitor alone (50 μM PD98059 or 10 μM U0126, 30 minutes)
Experimental: as §4, §5

CREB [7] = conditions: Vanhoutte et al. 1999; cited from earlier work

COc1ccc(C2CNC(=O)C2)cc1OC1CCCC1 (stereo not drawn) [rolipram, reference compound]
effect on cAMP levels by itself (cAMP; 1 μM fisetin 5 minutes, 3 μM rolipram 30 minutes): modestly increased | potentiation of the effect of forskolin on cAMP levels (cAMP; then 5 μM forskolin for 15 minutes): significantly potentiated

O=c1cc(-c2ccc(O)cc2)oc2cc(O)cc(O)c12 [apigenin, reference compound]
object recognition (Male C57Bl/6J mice): did not exhibit significantly better object recognition

CN[C@H](CC(=O)O)C(=O)O [NMDA]
increase in ERK phosphorylation reported following treatment of slices (ERK [1]): ~2.5 fold

COc1cccc(-c2cc(=O)c3ccccc3o2)c1N [PD98059, reference compound]
effect on the ability of fisetin or its derivatives to prevent cell death (HT22 cells): no significant effect | effect on ERK activation by the different flavonoids (ERK [2]): blocked | effect on activation of ERK by fisetin (ERK [3]): blocked | effect on activation of CREB by fisetin (CREB [4]): blocked | effect on fisetin-induced facilitation of LTP ([5]; PD98059 added 10 minutes prior to fisetin): blocked | effect on basal synaptic transmission ([5]; no tetanus): no effect | p42 phosphoprotein signal normalized to total protein (ERK2 (p42)): 0.83±0.08 | p44 phosphoprotein signal normalized to total protein (ERK1 (p44)): 0.75±0.5 | CREB phosphoprotein signal normalized to total protein (CREB [6]): 0.64±0.11

N[C@@H](CCC(=O)O)C(=O)O [glutamate]
increase in CREB phosphorylation reported following treatment of slices (CREB [7]): ~2.5 fold | increase in ERK phosphorylation reported following treatment of slices (ERK [1]): 1.5-2 fold
